Structures can show the parent of a compound that is named as a salt.

The molecule `CCC(=NOC)c1ccc(OCCCN2CCCCC2C)cc1.Cl` (stereo not shown) displayed a melting point of 185 to 187 °C.
For `C[C@@H]1CCC[C@H](C)N1CCCCCOc1ccccc1.Cl` the value was 135 to 136 °C; for `CC1CCCN(CCCOc2ccc(C#N)cc2)C1.Cl` (stereo not shown), 171 to 173 °C; for `CC(=O)CCc1ccc(OCCCN2CCCCC2)cc1.Cl`, 148 to 150 °C.
For `CC1CCCCN1CCCOc1ccc(C#N)cc1.Cl` (stereo not shown) the value was 177 to 180 °C.
For `CC1CCN(CCCOc2ccc(C#N)cc2)CC1` (as salt: hydrochloride) [Example 78, 1-[3-(4-cyanophenoxy)propyl]-4-methylpiperidine] the value was 200 to 202 °C.
`N#Cc1ccc(OCCCN2CCCCC2)cc1F` (as salt: hydrochloride) [Example 82, 1-[3-(4-cyano-3-fluorophenoxy)propyl]piperidine] registered a melting point of 157 to 159 °C.
Under `CC1CCCCN1CCCOc1ccc(C#N)cc1` (stereo not shown) (as salt: hydrochloride) [Example 98] stands 151 to 153 °C; under `c1ccc(OCCCCCN2CCCCC2)cc1` (as salt: oxalate) [Example 1, 1-(5-phenoxypentyl)-piperidine], 143 to 145 °C; under `c1ccc(OCCCCCN2CCCC2)cc1` (as salt: oxalate) [Example 2, 1-(5-phenoxypentyl)-pyrrolidine], 153 to 155 °C.
Under `CCN(C)CCCCCOc1ccccc1` (as salt: oxalate) [Example 3, N-methyl-N-(5-phenoxypentyl)-ethylamine] stands 122 to 124 °C.
For `c1ccc(OCCCCCN2CCCCCC2)cc1` (as salt: oxalate) [Example 5, N-(5-phenoxypentyl)-hexamethyleneimine] the value was 132 to 134 °C; for `CCCN(CC)CCCCCOc1ccccc1` (as salt: oxalate) [Example 6, N-ethyl-N-(5-phenoxypentyl)-propylamine], 90 to 91 °C; for `CC1CCCCN1CCCCCOc1ccccc1` (stereo not shown) (as salt: oxalate) [Example 7, 1-(5-phenoxypentyl)-2-methyl-piperidine], 80 to 83 °C.
`CCCC1CCN(CCCCCOc2ccccc2)CC1` (as salt: oxalate) [Example 8, 1-(5-phenoxypentyl)-4-propyl-piperidine] returned a melting point of 165 to 166 °C.
For `CC1CCN(CCCCCOc2ccccc2)CC1` (as salt: oxalate) [Example 9, 1-(5-phenoxypentyl)-4-methyl-piperidine] the value was 151 to 152 °C; for `CC(=O)N1CCN(CCCCCOc2ccccc2)CC1` (as salt: oxalate) [Example 11, 1-acetyl-4-(5-phenoxypentyl)-piperazine], 186 to 188 °C.
For `C[C@@H]1C[C@H](C)CN(CCCCCOc2ccccc2)C1` (as salt: oxalate) [Example 13, 1-(5-phenoxypentyl)-3,5-cis-dimethyl-piperidine] the value was 154 to 155 °C.
For `CCOC(=O)C1CCN(CCCCCOc2ccccc2)CC1` (as salt: oxalate) [Example 15, 4-carboethoxy-1-(5-phenoxypentyl)-piperidine] the value was 149 to 150 °C; for `CCOC(=O)C1CCCN(CCCCCOc2ccccc2)C1` (stereo not shown) (as salt: oxalate) [Example 16, 3-carboethoxy-1-(5-phenoxypentyl)-piperidine], 117 to 118 °C.
Turning to `C1=CCN(CCCCCOc2ccccc2)CC1` (as salt: oxalate) [Example 17, 1-(5-phenoxypentyl)-1,2,3,6-tetrahydropyridine], the melting point lay in the range of 177 to 179 °C.
Under `Clc1ccc(OCCCCCN2CCCC2)cc1` (as salt: oxalate) [Example 19, 1-[5-(4-chlorophenoxy)-pentyl]-pyrrolidine] stands 139 to 141 °C; under `COc1ccc(OCCCCCN2CCCC2)cc1` (as salt: oxalate) [Example 20, 1-[5-(4-methoxyphenoxy)-pentyl]-pyrrolidine], 115 to 116 °C; under `Cc1ccc(OCCCCCN2CCCC2)cc1` (as salt: oxalate) [Example 21, 1-[5-(4-methylphenoxy)-pentyl]-pyrrolidine], 138 to 140 °C.
Under `N#Cc1ccc(OCCCCCN2CCCC2)cc1` (as salt: oxalate) [Example 22, 1-[5-(4-cyanophenoxy)-pentyl]-pyrrolidine] stands 129 to 130 °C; under `c1ccc2c(OCCCCCN3CCCC3)cccc2c1` (as salt: oxalate) [Example 24, 1-[5-(1-naphthyloxy)-pentyl]-pyrrolidine], 160 to 163 °C.
For `Clc1cccc(OCCCCCN2CCCC2)c1` (as salt: oxalate) [Example 25, 1-[5-(3-chlorophenoxy)-pentyl]-pyrrolidine] the value was 131 to 132 °C; for `c1ccc(-c2ccc(OCCCCCN3CCCC3)cc2)cc1` (as salt: oxalate) [Example 26, 1-[5-(4-phenylphenoxy)-pentyl]-pyrrolidine], 189 to 190 °C; for `c1cc2c(cc1OCCCCCN1CCCC1)CCCC2` (as salt: oxalate) [Example 27, 1-{5-[2-(5,6,7,8-tetrahydronaphthyl)-oxy]-pentyl}-pyrrolidine], 131 to 132 °C.
For the molecule `c1cc2c(c(OCCCCCN3CCCC3)c1)CCCC2` (as salt: oxalate) [Example 30, 1-{5-[1-(5,6,7,8-tetrahydronaphthyl)-oxy]-pentyl}-pyrrolidine], the melting point lay within 148 to 149 °C.
Under `c1ccc(OCCCCN2CCCC2)cc1` (as salt: oxalate) [Example 31, 1-(4-phenoxybutyl)-pyrrolidine] stands 143 to 144 °C; under `c1ccc(OCCCCCCN2CCCC2)cc1` (as salt: oxalate) [Example 32, 1-(6-phenoxyhexyl)-pyrrolidine], 146 to 147 °C; under `c1ccc(SCCCCCN2CCCC2)cc1` (as salt: oxalate) [Example 33, 1-(5-phenylthiopentyl)-pyrrolidine], 150 to 152 °C.
Under `c1ccc(SCCCCN2CCCC2)cc1` (as salt: oxalate) [Example 34, 1-(4-phenylthiobutyl)-pyrrolidine] stands 114 to 116 °C; under `O=[N+]([O-])c1cccc(OCCCCCN2CCCC2)c1` (as salt: oxalate) [Example 36, 1-[5-(3-nitrophenoxy)-pentyl]-pyrrolidine], 130 to 131 °C; under `Fc1ccc(OCCCCCN2CCCC2)cc1` (as salt: oxalate) [Example 37, 1-[5-(4-fluorophenoxy)-pentyl]-pyrrolidine], 149 to 150 °C.
In the case of `CC1CCCN(CCCCCOc2ccc([N+](=O)[O-])cc2)C1` (stereo not shown) (as salt: oxalate) [Example 38, 1-[5-(4-nitrophenoxy)-pentyl]-3-methyl-piperidine], the melting point lay in the range of 148 to 149 °C.
`CC(=O)c1ccc(OCCCCCN2CCCC2)cc1` (as salt: oxalate) [Example 39, 1-[5-(4-acetylphenoxy)-pentyl]-pyrrolidine] had a melting point of 130 to 134 °C.
`Nc1ccc(OCCCCCN2CCCC2)cc1` (as salt: oxalate) [Example 40, 1-[5-(4-aminophenoxy)-pentyl]-pyrrolidine]: the melting point lay in the range of 120 to 122 °C.
For `N#Cc1cccc(OCCCCCN2CCCC2)c1` (as salt: oxalate) [Example 41, 1-[5-(3-cyanophenoxy)-pentyl]-pyrrolidine] the value was 119 to 120 °C.
Under `CCN(CC)CCCOc1ccc([N+](=O)[O-])cc1` (as salt: oxalate) [Example 42, N-[3-(4-nitrophenoxy)-propyl]-diethylamine] stands 160 to 161 °C.
For `CCN(CC)CCCOc1ccc(C#N)cc1` (as salt: oxalate) [Example 43, N-[3-(4-cyanophenoxy)-propyl]-diethylamine] the value was 148 to 150 °C; for `O=C(c1ccccc1)c1ccc(OCCCCCN2CCCC2)cc1` (as salt: oxalate) [Example 44, 1-[5-(4-benzoylphenoxy)-pentyl]-pyrrolidine], 141 to 142 °C.
In turn, `O=C(Cc1ccccc1)c1ccc(OCCCCCN2CCCC2)cc1` (as salt: oxalate) [Example 45, 1-{5-[4-(phenylacetyl)-phenoxy]-pentyl}pyrrolidine] had a melting point of 177 to 178 °C.
For `CCN(CC)CCCOc1ccc(C(C)=O)cc1` (as salt: oxalate) [Example 46, N-[3-(4-acetylphenoxy)-propyl]-diethylamine] the value was 108 to 110 °C; for `c1ccc(Oc2ccc(OCCCCCN3CCCC3)cc2)cc1` (as salt: oxalate) [Example 48, 1-[5-(4-phenoxyphenoxy)-pentyl]-pyrrolidine], 135 to 136 °C; for `O=C(Nc1ccc(OCCCCCN2CCCC2)cc1)c1ccccc1` (as salt: oxalate) [Example 49, 1-[5-(4-N-benzamidophenoxy)-pentyl]-pyrrolidine], 176 to 178 °C.
Under `CC(O)c1ccc(OCCCCCN2CCCC2)cc1` (stereo not shown) (as salt: oxalate) [Example 50, 1-{5-[4-(1-hydroxyethyl)-phenoxy]-pentyl}-pyrrolidine] stands 102 to 104 °C; under `CCN(CC)CCCCCOc1ccc(C#N)cc1` (as salt: oxalate) [Example 51, 1-[5-(4-cyanophenoxy)-pentyl]-diethylamine], 120 to 122 °C.
Under `N#Cc1ccc(OCCCCCN2CCCCC2)cc1` (as salt: oxalate) [Example 52, 1-[5-(4-cyanophenoxy)-pentyl]-piperidine] stands 115 to 116 °C; under `CN(C)CCCCCOc1ccc(C#N)cc1` (as salt: oxalate) [Example 53, N-[5-(4-cyanophenoxy)-pentyl]-dimethylamine], 148 to 149 °C.
`CN(C)CCCOc1ccc(C#N)cc1` (as salt: oxalate) [Example 55, N-[3-(4-cyanophenoxy)-propyl]-dimethylamine] showed a melting point of 166 to 167 °C.

A word on the melting point: it is the temperature, or range, at which the solid turns liquid.
